In paper PMC3205185, “Identification of a Eukaryotic Reductive Dechlorinase and Characterization of Its Mechanism of Action on Its Natural Substrate” (Chemistry & Biology, 2011):

Legend:
DrcA (ΔNC16NDrcA) [1] = target: T1, DrcA (ΔNC16NDrcA) (Dictyostelium discoideum, UniProt Q54B85, C54N); test: TLC time course and Orbitrap MS of products of the purified mutant; further converted to GS-DIF-GS; type: biochemical
T1 construct: gene DDB_G0293840; ΔNDrcA, lacking the first 38 residues
T1 sequence (Q54B85 39-275 C54N): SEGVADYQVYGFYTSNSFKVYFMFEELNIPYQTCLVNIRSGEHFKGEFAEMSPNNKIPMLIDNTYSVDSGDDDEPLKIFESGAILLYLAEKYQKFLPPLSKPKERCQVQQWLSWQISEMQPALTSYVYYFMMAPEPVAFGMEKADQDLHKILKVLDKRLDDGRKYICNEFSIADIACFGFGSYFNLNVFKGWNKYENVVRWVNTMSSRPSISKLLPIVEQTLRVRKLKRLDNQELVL

DrcA (ΔNC16NDrcA) [2] = target: T1, DrcA (ΔNC16NDrcA); test: dechlorination assay with purified mutant, TLC and Orbitrap MS of the conjugates; type: biochemical
[3] = target: T2, DrcA (DIF-1 dechlorinase) (Dictyostelium discoideum, UniProt Q54B85); test: DIF-1 dechlorination assay with TLC, purified protein; further dechlorinated at higher enzyme or longer incubation; type: biochemical
T2 construct: gene DDB_G0293840
T2 sequence (Q54B85 1-275): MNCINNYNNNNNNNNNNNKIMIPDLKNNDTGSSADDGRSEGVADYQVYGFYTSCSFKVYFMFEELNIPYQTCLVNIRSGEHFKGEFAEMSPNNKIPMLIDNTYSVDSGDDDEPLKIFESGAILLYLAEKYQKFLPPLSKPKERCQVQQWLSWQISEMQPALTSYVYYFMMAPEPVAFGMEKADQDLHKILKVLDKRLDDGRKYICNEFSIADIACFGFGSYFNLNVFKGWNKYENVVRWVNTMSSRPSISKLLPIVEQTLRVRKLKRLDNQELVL

[4] = substrate: CCCCCC(=O)c1c(O)c(Cl)c(OC)c(Cl)c1O; test: radioactive [3H]DIF-1 dechlorination assay with TLC, Michaelis-Menten kinetics, purified enzyme (Km); type: biochemical, Dictyostelium discoideum; conditions: glutathione glutathione attacks the carbon-chlorine bond to give a GS-DIF conjugate, which is resolved by Cys54

With `CCCCCC(=O)c1c(O)c(Cl)c(OC)c(SC[C@H](NC(=O)CC[C@H](N)C(=O)O)C(=O)NCC(=O)O)c1O` [GS-DIF] the “TLC time course and Orbitrap MS of products of the purified mutant; further conv” value (DrcA (ΔNC16NDrcA) [1]) was “ΔNC16NDrcA must be able to accommodate the conjugate GS-DIF to attack the second carbon-chlorine bond”.

For `CCCCCC(=O)c1c(O)c(Cl)c(OC)c(Cl)c1O` [DIF-1], the “dechlorination assay with purified mutant, TLC and Orbitrap MS of the conjugates” value (DrcA (ΔNC16NDrcA) [2]) was “although DIF-1 was consumed in the assay, DIF-3 was not produced”.

In the case of `CCCCCC(=O)c1c(O)cc(OC)c(Cl)c1O` [DIF-3], the “DIF-1 dechlorination assay with TLC, purified protein; further dechlorinated at” value [3] is reported as “only appears after all DIF-1 has been converted into the monochlorinated form, suggesting a lower affinity”.

B1: DrcA (DIF-1 dechlorinase) (Dictyostelium discoideum) (protein)
chain: SEGVADYQVYGFYTSCSFKVYFMFEELNIPYQTCLVNIRSGEHFKGEFAEMSPNNKIPMLIDNTYSVDSGDDDEPLKIFESGAILLYLAEKYQKFLPPLSKPKERCQVQQWLSWQISEMQPALTSYVYYFMMAPEPVAFGMEKADQDLHKILKVLDKRLDDGRKYICNEFSIADIACFGFGSYFNLNVFKGWNKYENVVRWVNTMSSRPSISKLLPIVEQTLRVRKLKRLDNQELVL
notes: ΔNDrcA, lacking the first 38 residues, C-terminal 6×His tag
Work on B1 yielded a Km [4] of 0.088 ± 0.0175 µM, a kcat [4] of 6.7 s⁻¹ and a kcat/Km [4] of 7.6e+07 M⁻¹ s⁻¹.
